Experimental data from patent US8202696B2, “Means for use in treating diseases correlated with or caused by non-physiological levels of microtubule-associated PP2Ac” (Max-Planck-Gessellschaft zur Forderung der Wissenschaften …, priority 2002, dated 2012).
Where no end group is shown, it is not given here.

Columns and labels:
α4 = biological target: T1, α4 (Homo sapiens, UniProt P78318); experiment: Yeast two-hybrid interaction of MID1 constructs with α4; assay type: binding
T1 construct: expressed in transfected cells; host or cells: L40 yeast strain
T1 sequence (P78318 1-339): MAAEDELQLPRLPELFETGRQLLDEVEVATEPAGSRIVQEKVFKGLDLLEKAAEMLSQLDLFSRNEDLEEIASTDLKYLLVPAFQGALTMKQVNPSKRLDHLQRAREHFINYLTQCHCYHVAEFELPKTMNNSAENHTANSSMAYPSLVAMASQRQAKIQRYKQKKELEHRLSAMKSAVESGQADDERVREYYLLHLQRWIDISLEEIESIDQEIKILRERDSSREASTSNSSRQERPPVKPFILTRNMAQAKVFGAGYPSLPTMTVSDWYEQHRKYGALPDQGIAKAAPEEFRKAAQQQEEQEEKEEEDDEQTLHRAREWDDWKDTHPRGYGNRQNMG
Protocol: Yeast two-hybrid screening. For yeast two-hybrid screening, we cloned full-length MID1 cDNA into the pBTM116 vector. We then cotransfected this with a human fetal brain cDNA Matchmaker library in the pGAD10 vector (Clontech) into the L40 yeast strain. We plated the transformants on synthetic medium lacking histidine, leucine and tryptophan (his^− leu^− trp^−) and containing 3-amino-1,2,4, triazole, and incubated the plates at 30° C. for 5 days. We assayed his-positive colonies for β-galactosidase activity with a filter assay^47. We isolated plasmid DNA from β-galactosidase-positive clones and cotransfected this again into L40 yeast with MID1-pBTM116 and controls. We selected plasmids that produced growth on selective plates only in combination with MID1-pBTM116, which were assumed to code for MID1 interactors, and sequenced them.
Activity of β-galactosidase in yeast liquid cultures. We assayed cells for β-galactosidase activity by the o-nitrophenyl-β-D-galactopyranoside (ONPG) method^47.
MID1 is a multidomain protein harboring a RING finger, two B-boxes, a coiled-coil region, a fibronectin type III domain and a B30.2 domain^3—all of which are candidate regions for specific protein-protein interactions. To clarify which domain specifically binds α4, we tested several deletion mutants of MID1 for interaction with α4 in the yeast two-hybrid system. […]

Gli3 = experiment: Localization of GFP-GLI3 in cultured U373MG cells; assay type: cell-based; details: 24 hours after transfection, 100 cells counted
Protocol: COS7-HELA- and U373MG-cells were transfected using PolyFect Transfection Reagent (Qiagen, cat. no. 301107) according to the manufacturer's instructions. Gli3 cDNA was cloned into pEGFP-C1 and pEGFP-N3 vectors (Clontech) respectively. 100 transfected cells per experiment (Gli3-GFP, GFP-Gli3, Gli3-GFP+myc-MID1, GFP-Gli3+myc-MID1, Gli3-GFP+myc-BBox1, GFP-Gli3+myc-BBox1) were counted and analysed for Gli3 localization. Experiments were repeated twice. […] PCMV-Tag3 vector from Stratagene was used for myc-MID1 and myc-BBox1 overexpression.

tau protein = experiment: Tau-1 and pan-Tau immunofluorescence in transfected postnatal sympathetic neurons; assay type: cell-based, rat; details: compared to non-transfected neurons = 100%, two days after transfection
Protocol: Peripheral sympathetic neurons were obtained from postnatal day 1-3 rats. […] Following mechanical dissociation the cell suspension was filtered through a 40 μm nylon mesh and seeded at 6 SCGs per well into uncoated Falcon dishes for preplating purposes. After 4 hours neurons were transferred into glass floor dishes (Willco Wells B.V., gwst 3522, 3.8 cm^2 area/dish) coated with poly-D-lysine/laminin. Neurons were maintained in RPMI medium containing antibiotics, N2 additive (Invitrogen) and 100 ng/ml nerve growth factor (NGF; Sigma) at 37° C. in a humidified atmosphere with 5% CO2.
Neurons were transfected 2 hours after seeding applying the biolistic approach. This method uses a hand held gun to bombard dissociated neurons at high velocity with micron-size gold particles loaded with DNA. The coating of gold particles with DNA was achieved using a modification of the manufacturer's instructions (Bio-Rad Laboratories). For preparation of 35 cartridges 25 mg gold particles (1.6 μm diameter) were suspended in 50 μl of 0.05 M spermidine. After vortexing and sonication for 5 seconds, 50 μg plasmid DNA dissolved in 50 μl TE buffer was added (for co-transfection experiments, 80 μg were used, i.e., 40 μg Plasmid I+40 μg Plasmid 2). The amount of gold particles and DNA corresponds to a microcarrier loading quantity (MLQ) of about 0.7 (mg/cartridge) and to a DNA loading ratio (DLR) of 2 (μg/mg) for single transfection experiments. DNA, spermidine and gold were then mixed for 5 sec in a variable speed vortexer. At low vortexing speed, 50 μl 1 M CaCl2 was added dropwise to the mixture for association of DNA with the gold particles followed by precipitation for 10 min at room temperature. The supernatant was removed and the pellet rinsed with 800 μl of 100% ethanol. Washing was repeated two times with centrifugation steps at 3000 g between each wash. […]
A fully motorized Zeiss Axiovert 100M microscope equipped for inverted fluorescence was used for visualization of fluorescent neurons. […]

For “B-Box1: peptide derived from the MID1 domain that is responsible for α4 binding (amino acids 108-165), expressed from plasmid (ANTMTSAEKVLCQFCDQDPAQDAVKTCVTCEVSYCDECLKATHPNKKPFTGHRLIEPI; cysteine pairing not given here; also: myc tag; UniProt O15344 108-165, looked up, fragment)”, the “Interaction with α4” value (α4) was “sufficient for a strong interaction with α4”, the GFP-GLI3 localization (Gli3; listed as B-BOX1) was “significant change of GFP-GLI3 from nucleus to cytosol” and the GFP-GLI3 localization (Gli3; listed as BBox1) was “significant change from the nucleus to the cytosol”. For the same substance, the GFP-GLI3 localization (Gli3; listed as Bbox1) was “significant Bbox1-dependent change of Gli3 localization”, the “Tau-1 immunoreactivity (dephosphorylated tau)” value (tau protein; listed as B-BOX1) was “significantly increased” and the “Tau-1 immunoreactivity (dephosphorylated tau)” value (tau protein; listed as Bbox1) was “pronounced increase in fluorescence”.
